Experimental findings from PMC6667453, “Opportunistic complexes of E. coli L-asparaginases with citrate anions” (Scientific Reports, 2019) are described below.

Structures can show the parent of a compound that is named as a salt.

Holding throughout (assay type): binding
In assay [1] the target is T1, EcAII, type II L-asparaginase from Escherichia coli (Escherichia coli, UniProt P00805, D112T/K184T).
T1 construct: gene ansB; Met-(His)6-EcAII, N-terminal tag kept; secreted from E. coli triple asparaginase knockout
T1 sequence (P00805 23-348 D112T/K184T): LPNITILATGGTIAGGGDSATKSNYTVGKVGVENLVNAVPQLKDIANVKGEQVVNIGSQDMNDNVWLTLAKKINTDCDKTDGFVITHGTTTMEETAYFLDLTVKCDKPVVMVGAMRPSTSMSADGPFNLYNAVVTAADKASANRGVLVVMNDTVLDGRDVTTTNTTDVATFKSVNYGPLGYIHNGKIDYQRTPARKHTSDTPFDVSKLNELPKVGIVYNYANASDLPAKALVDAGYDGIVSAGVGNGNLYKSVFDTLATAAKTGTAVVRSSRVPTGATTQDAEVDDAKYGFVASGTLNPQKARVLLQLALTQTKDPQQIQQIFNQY
Description: X-ray crystal structure. As to conditions: pH 5.0 (also pH 5.6, 6nx7; pH 6.2, 6nx8), 0.17 M citrate, 10 mM L-Asn, 293 K; non-covalent, one of two active sites (protomer B); stabilised by His6-tag of symmetry mate, called an artifact.

Assay [2] has as its target T2, EcAI (AnsA), type I L-asparaginase from E. coli (Escherichia coli, UniProt P0A962).
T2 construct: four protomers (two dimers) in the asymmetric unit
T2 sequence (P0A962 1-338): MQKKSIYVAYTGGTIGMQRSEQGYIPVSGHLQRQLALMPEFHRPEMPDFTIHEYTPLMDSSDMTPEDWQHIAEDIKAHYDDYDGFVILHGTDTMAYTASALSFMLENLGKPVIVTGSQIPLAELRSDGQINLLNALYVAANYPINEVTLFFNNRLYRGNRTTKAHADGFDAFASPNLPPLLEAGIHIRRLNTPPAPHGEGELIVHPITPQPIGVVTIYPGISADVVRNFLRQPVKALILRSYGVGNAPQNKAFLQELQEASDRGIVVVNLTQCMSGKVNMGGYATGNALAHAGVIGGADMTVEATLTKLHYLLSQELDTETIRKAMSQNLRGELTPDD
The experiment in a line: X-ray crystal structure, re-refined from deposited data (2p2n). As to conditions: pH about 4.0 (0.1 M citrate, 1 M NaCl); covalent, acyl-enzyme ester to Thr14 OG1 in active site; re-interpretation of ligand first modelled as L-Asp/L-Asn.

Assay [3] deals with T3, EcAII, type II L-asparaginase from Escherichia coli (Escherichia coli, UniProt P00805).
T3 construct: gene ansB; Met-(His)6-EcAII, N-terminal tag kept; secreted from E. coli triple asparaginase knockout
T3 sequence (P00805 23-348): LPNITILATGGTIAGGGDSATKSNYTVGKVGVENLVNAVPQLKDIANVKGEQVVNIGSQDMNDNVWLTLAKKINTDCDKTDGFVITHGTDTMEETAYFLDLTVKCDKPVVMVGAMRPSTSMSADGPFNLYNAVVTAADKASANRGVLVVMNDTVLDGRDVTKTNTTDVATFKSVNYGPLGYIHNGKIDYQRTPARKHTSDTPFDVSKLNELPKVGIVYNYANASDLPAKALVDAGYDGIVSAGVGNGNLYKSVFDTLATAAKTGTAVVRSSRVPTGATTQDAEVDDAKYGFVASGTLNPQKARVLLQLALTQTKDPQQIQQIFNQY
Description: intact-protein LC/MS (electrospray). As to conditions: pH 4.0, 200 mM citrate; no L-Asp; covalent (addition of citrate minus water).

Assay [4] addresses T3, EcAII, type II L-asparaginase from Escherichia coli. Description: X-ray crystal structure. To be noted: pH 7.0, 0.17 M ammonium citrate, 17% PEG3350, 100 K; non-covalent, all four active sites.

With `O=C(O)CC(O)(CC(=O)O)C(=O)O` [CIT, citrate], the X-ray crystal structure entry in assay [1] is “maps indicated clearly the presence of a citrate anion in this site”; in assay [4], “The shape of this peak could be unambiguously interpreted as a citrate anion”. Moreover, the “X-ray crystal structure, re-refined from deposited data (2p2n)” value in assay [2] is listed as “substitution by citrate anions covalently linked to the side chain of Thr14”. Also, the “% abundance of adduct (+174.0) at 200 mM citrate” value in assay [3] was 38.1%.
